Assay results: US12194050B2, “Thiadiazine derivatives” (RICHTER GEDEON NYRT., priority 2018, dated 2025)

Columns and labels:
human α7 nAchR = human α7 nAchR (Homo sapiens (Human), UniProt P36544); test: Human α7 nicotinic acetylcholine receptor [Ca2+]i assay (PAM, Ca2+ fluorometry); format: cell-based; details: Flp-In 293 cells expressing human α7 nAchR and human RIC-3; in presence of saturating agonist (mostly PNU-282987, 1 μM)
Method: Biological Activity Human α7 Nicotinic Acetylcholine Receptor [Ca^2+]i Assay
Cells: Flp-In 293 cells stably expressing human α7 nAchR and human RIC-3 (α7 cells, generated in house.)
Materials: 96-well plates coated with PDL (Falcon), culture medium, assay buffer, DMSO, FLIPR Calcium 5 kit (Molecular Devices), probenecid, agonist and PAM test compounds.
Brief Description of the Method (Ca^2+ Fluorometry)
α7 cells stably expressing human α7 nAchR were cultured in the medium detailed above, and were split twice a week. For the fluorometric measurements of cytosolic Ca^2+ ion concentration ([Ca^2+]i) cells were seeded in 96-well microplates at a density of 60000 cells/well and maintained overnight in a tissue culture incubator at 37° C. under an atmosphere of 95% air/5% CO2. The plating medium was identical with the culture medium. 50 μl of the growth medium was aspirated with a cell washer (BioTek Elx405UCVWS). Then 50 μl/well Calcium 5 kit diluted 2-fold in assay buffer was added manually using an 8-channel pipette. After an incubation period (20 minutes, 37° C.) 50 μl/well assay buffer containing vehicle (DMSO, 4% added) or reference α7 PAMs (4×of the final concentration) were added manually and the cells were incubated for an additional 10 minutes at 37° C. Baseline and agonist-evoked [Ca2+]i-changes were monitored with FlexStation II (Molecular Devices, Sunnyvale, Calif.), a plate reader fluorometer with integrated 8-channel fluid addition capability. Fluorescence measurements were carried out at 37° C. The dye was excited at 485 nm, emission was sampled at 525 nm at 1.4-s intervals. Baseline was recorded for 20 seconds followed by agonist stimulation. 50 μl 4× concentrated agonist solution was added to the cells using the pipettor of FlexStation II and fluorescence was monitored for an additional 40 seconds. Final DMSO concentration was 1% for all treatments. To achieve this, a series of DMSO stock solutions were prepared from all test compounds. These stocks were stored under 0° C. and were further diluted in assay buffer to obtain the desired final concentration immediately before the measurement. Agonist and PAM concentration-response studies were conducted in the presence of saturating concentrations of PAMs (mostly PNU-120596, 5 μM) and agonists (mostly PNU-282987, 1 μM), respectively. Results were expressed as ΔF/F values using SoftMax Pro software (Molecular Devices), where F was the resting fluorescence preceding agonist application and ΔF was the increase in fluorescence at a given time (ΔF=maximum fluorescence intensity values after stimulation minus average fluorescence intensity values before stimulation). In all experiments, all treatments were measured in multiple wells in parallel, and the mean ΔF/F values were used for analysis.

Male NMRI mice = test: Place recognition test (Y-maze), reversal of scopolamine-induced amnesia; format: in vivo; details: scopolamine 1 mg/kg i.p.
Method: In Vivo Pharmacology (Place Recognition Test)
Animals: Male NMRI mice (Toxicoop, Hungary)
Substances: Scopolamine was dissolved in saline and administered at 1 mg/kg dose i.p. Test compounds were administered 30 minutes before the acquisition trial (T1) and scopolamine after the acquisition trial at a volume of 0.1 ml/10 g.
Procedure: The task was carried out in a transparent plexiglass Y-maze (each arm has a length of 40 cm, an inner width of 11 cm and a height of 30 cm). Numerous visual cues were placed around the arms and were kept constant during the experiment. The test consisted of two trials (T1 and T2) separated by an intertrial interval of 30 minutes. Mice were placed in the starting arm of the maze at the beginning of each trial. In T1, one of the symmetric arms of the maze was closed (it will be novel in T2) and the animals were allowed to explore the maze for 5 minutes (acquisition phase). In T2, mice had free access to all three arms for 2 minutes (retrieval phase). The time spent with exploration in the novel and familiar arms during T2 was measured. Differences between the exploration times spent in the familiar vs. novel arms of the maze for each group were evaluated by MANOVA, followed by Duncan post hoc test.
Significant differences (^+p<0.05; ^++p<0.01; ^+++p<0.001) were observed between the exploration times spent in the novel vs. familiar arms of the maze.

Sequence of human α7 nAchR (P36544 23-502): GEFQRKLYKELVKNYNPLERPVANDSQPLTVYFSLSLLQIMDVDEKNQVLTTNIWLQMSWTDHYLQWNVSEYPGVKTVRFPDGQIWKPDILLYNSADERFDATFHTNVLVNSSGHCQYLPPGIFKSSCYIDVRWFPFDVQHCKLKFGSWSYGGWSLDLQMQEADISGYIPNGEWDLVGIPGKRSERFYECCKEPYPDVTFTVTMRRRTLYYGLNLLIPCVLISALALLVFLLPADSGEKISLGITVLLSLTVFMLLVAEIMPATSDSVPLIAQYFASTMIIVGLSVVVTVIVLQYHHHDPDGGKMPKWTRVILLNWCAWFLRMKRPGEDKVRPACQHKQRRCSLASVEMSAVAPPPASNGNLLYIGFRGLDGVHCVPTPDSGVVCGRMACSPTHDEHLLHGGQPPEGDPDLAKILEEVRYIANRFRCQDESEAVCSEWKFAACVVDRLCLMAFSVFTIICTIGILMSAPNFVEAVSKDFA

CCN1C(C(=O)Nc2cccc(OC)c2)=CC(c2ccc(OC)c(C(F)(F)F)c2)=NS1(=O)=O [Example 37] was tested, and the EC50 (human α7 nAchR) was 45 nM, the “reversal of the scopolamine-induced amnesia; significance of exploration time novel vs. familiar arm” value (Male NMRI mice; 1 mg/kg i.p.) was “+++ (+++p < 0.001)” and the “reversal of the scopolamine-induced amnesia; significance of exploration time novel vs. familiar arm” value (Male NMRI mice; 3 mg/kg i.p.) was “++ (++p < 0.01)”. For the same compound, the “reversal of the scopolamine-induced amnesia; significance of exploration time novel vs. familiar arm” value (Male NMRI mice; 10 mg/kg i.p.) was “+++ (+++p < 0.001)”.
For Cc1cccc(NC(=O)C2=CC(c3ccc4c(c3)c(C)nn4C)=NS(=O)(=O)N2C)c1 [Example 21], the EC50 (human α7 nAchR) was 230 nM, the “reversal of the scopolamine-induced amnesia; significance of exploration time novel vs. familiar arm” value (Male NMRI mice; 1 mg/kg i.p.) was “++ (++p < 0.01)” and the “reversal of the scopolamine-induced amnesia; significance of exploration time novel vs. familiar arm” value (Male NMRI mice; 3 mg/kg i.p.) was “+++ (+++p < 0.001)”. For the same compound, the “reversal of the scopolamine-induced amnesia; significance of exploration time novel vs. familiar arm” value (Male NMRI mice; 10 mg/kg i.p.) was “++ (++p < 0.01)”.
O=C(Nc1cccc(F)n1)C1=CC([C@H]2CC[C@H](C(F)(F)F)CC2)=NS(=O)(=O)N1CC1CC1 [Example 132] showed an EC50 (human α7 nAchR) of 35 nM.
In the case of CCN1C(C(=O)Nc2cccc(C(F)(F)F)c2)=CC(c2ccc(C(F)(F)F)c(OC)c2)=NS1(=O)=O [Example 48], the EC50 (human α7 nAchR) is reported as 330 nM.
CCCN1C(C(=O)Nc2ccc(OC)cc2)=CC(c2ccc(OC)c(OC)c2)=NS1(=O)=O [Example 112] gave an EC50 (human α7 nAchR) of 75 nM.
Work on COc1ccc(C2=NS(=O)(=O)N(C)C(C(=O)Nc3ccnc(C)c3)=C2)cc1OC [Example 15] yielded an EC50 (human α7 nAchR) of 3000 nM.
CCN1C(C(=O)Nc2cncc(C(F)(F)F)n2)=CC([C@H]2CC[C@H](C(F)(F)F)CC2)=NS1(=O)=O [Example 60] showed an EC50 (human α7 nAchR) of 300 nM.
CCN1C(C(=O)Nc2cccc(C(F)(F)F)n2)=CC([C@H]2CC[C@H](C)CC2)=NS1(=O)=O [Example 67] showed an EC50 (human α7 nAchR) of 220 nM.
Work on CCCN1C(C(=O)Nc2cccc(C(F)(F)F)c2)=CC(c2cc(OC)c(OC)cc2F)=NS1(=O)=O [Example 96] yielded an EC50 (human α7 nAchR) of 330 nM.
CCN1C(C(=O)Nc2ccc(OC)c(Cl)c2)=CC(c2ccc(OC)c(OC)c2)=NS1(=O)=O [Example 36] gave an EC50 (human α7 nAchR) of 310 nM.
Compound COc1ccc(C2=NS(=O)(=O)N(C)C(C(=O)Nc3cc(C)ccn3)=C2)cc1OC [Example 18] has an EC50 (human α7 nAchR) of 2900 nM.
In the case of CCN1C(C(=O)Nc2cccc(C(F)(F)F)n2)=CC(c2ccc(OC)c(OC)c2)=NS1(=O)=O [Example 33], the EC50 (human α7 nAchR) is reported as 50 nM, the “reversal of the scopolamine-induced amnesia; significance of exploration time novel vs. familiar arm” value (Male NMRI mice; 1 mg/kg i.p.) is reported as “+++ (+++p < 0.001)” and the “reversal of the scopolamine-induced amnesia; significance of exploration time novel vs. familiar arm” value (Male NMRI mice; 3 mg/kg i.p.) is reported as “++ (++p < 0.01)”. The “reversal of the scopolamine-induced amnesia; significance of exploration time novel vs. familiar arm” value (Male NMRI mice; 10 mg/kg i.p.) was “++ (++p < 0.01)”.
With CCc1ccc(NC(=O)C2=CC(c3ccc(OC)c(OC)c3)=NS(=O)(=O)N2C)cc1 [Example 6] the EC50 (human α7 nAchR) was 1300 nM.
Work on COc1ccc(C2=NS(=O)(=O)N(C(C)C)C(C(=O)Nc3cccc(Nc4cccc(F)n4)n3)=C2)cc1OC [Example 90] yielded an EC50 (human α7 nAchR) of 1200 nM.
Compound COc1ccc(C2=NS(=O)(=O)N(C)C(C(=O)Nc3cccc(C)n3)=C2)cc1OC [Example 16] has an EC50 (human α7 nAchR) of 1400 nM.
In the case of CCCN1C(C(=O)Nc2cccc(C(F)(F)F)c2)=CC(c2ccc(OC)c(OC)c2)=NS1(=O)=O [Example 94], the EC50 (human α7 nAchR) is reported as 340 nM, the “reversal of the scopolamine-induced amnesia; significance of exploration time novel vs. familiar arm” value (Male NMRI mice; 1 mg/kg i.p.) is reported as “+++ (+++p < 0.001)” and the “reversal of the scopolamine-induced amnesia; significance of exploration time novel vs. familiar arm” value (Male NMRI mice; 3 mg/kg i.p.) is reported as “+++ (+++p < 0.001)”. The “reversal of the scopolamine-induced amnesia; significance of exploration time novel vs. familiar arm” value (Male NMRI mice; 10 mg/kg i.p.) was “+++ (+++p < 0.001)”.
In the case of COc1ccc(C2=NS(=O)(=O)N(C)C(C(=O)Nc3cccc(C)c3)=C2)cc1OC [Example 1, 5-(3,4-dimethoxyphenyl)-2-methyl-N-(3-methylphenyl)-1,1-dioxo-2H-1λ^6,2,6-thiadiazine-3-carboxamide], the EC50 (human α7 nAchR) is reported as 430 nM, the “reversal of the scopolamine-induced amnesia; significance of exploration time novel vs. familiar arm” value (Male NMRI mice; 1 mg/kg i.p.) is reported as “++ (++p < 0.01)” and the “reversal of the scopolamine-induced amnesia; significance of exploration time novel vs. familiar arm” value (Male NMRI mice; 3 mg/kg i.p.) is reported as “+++ (+++p < 0.001)”. For the same compound, the “reversal of the scopolamine-induced amnesia; significance of exploration time novel vs. familiar arm” value (Male NMRI mice; 10 mg/kg i.p.) was “+++ (+++p < 0.001)”.
With CCN1C(C(=O)Nc2cccc(C)c2)=CC(c2ccc(OC)c(OC)c2)=NS1(=O)=O [Example 29] the EC50 (human α7 nAchR) was 340 nM, the “reversal of the scopolamine-induced amnesia; significance of exploration time novel vs. familiar arm” value (Male NMRI mice; 1 mg/kg i.p.) was “+++ (+++p < 0.001)” and the “reversal of the scopolamine-induced amnesia; significance of exploration time novel vs. familiar arm” value (Male NMRI mice; 3 mg/kg i.p.) was “++ (++p < 0.01)”. For the same compound, the “reversal of the scopolamine-induced amnesia; significance of exploration time novel vs. familiar arm” value (Male NMRI mice; 10 mg/kg i.p.) was “+++ (+++p < 0.001)”.
With COc1ccc(C2=NS(=O)(=O)N(C(C)C)C(C(=O)Nc3cccc(C(F)(F)F)n3)=C2)cc1OC [Example 91] the EC50 (human α7 nAchR) was 35 nM, the “reversal of the scopolamine-induced amnesia; significance of exploration time novel vs. familiar arm” value (Male NMRI mice; 1 mg/kg i.p.) was “+++ (+++p < 0.001)” and the “reversal of the scopolamine-induced amnesia; significance of exploration time novel vs. familiar arm” value (Male NMRI mice; 3 mg/kg i.p.) was “+ (+p < 0.05)”. For the same compound, the “reversal of the scopolamine-induced amnesia; significance of exploration time novel vs. familiar arm” value (Male NMRI mice; 10 mg/kg i.p.) was “+++ (+++p < 0.001)”.
For CCN1C(C(=O)Nc2cccc(C(F)(F)F)c2)=CC([C@H]2CC[C@H](C(F)(F)F)CC2)=NS1(=O)=O [Example 50], the EC50 (human α7 nAchR) was 1100 nM.
With CCN1C(C(=O)Nc2cccc(C(F)(F)F)n2)=CC(C2CCC(F)(F)CC2)=NS1(=O)=O [Example 68] the EC50 (human α7 nAchR) was 140 nM.
COc1ccc(C2=NS(=O)(=O)N(C)C(C(=O)Nc3cccc(C)c3)=C2)cc1C [Example 24] gave an EC50 (human α7 nAchR) of 210 nM.
In the case of COc1ccc(C2=NS(=O)(=O)N(C)C(C(=O)Nc3cccc(C(C)=O)c3)=C2)cc1OC [Example 4], the EC50 (human α7 nAchR) is reported as 980 nM.
In the case of CCN1C(C(=O)Nc2cncc(C(F)(F)F)n2)=CC(C2CCC(F)(F)CC2)=NS1(=O)=O [Example 69], the EC50 (human α7 nAchR) is reported as 1100 nM.
Compound CCCN1C(C(=O)Nc2cccc(C(F)(F)F)n2)=CC(c2ccc(OC)c(C(F)(F)F)c2)=NS1(=O)=O [Example 97] has an EC50 (human α7 nAchR) of 30 nM.
